# Assays:
# Type in all cases: in vivo
# [1] = system: Surinam grass (Brachiaria decumbens); experiment: Test B pre/postemergence
# Source text: (§1) Seeds selected from barnyardgrass (Echinochloa crus-galli), Surinam grass (Brachiaria decumbens), cocklebur (Xanthium strumarium), corn (Zea mays), crabgrass (Digitaria sanguinalis), giant foxtail (Setaria faberii), lambsquarters (Chenopodium album), morningglory (Ipomoea coccinea), pigweed (Amaranthus retroflexus), velvetleaf (Abutilon theophrasti), and wheat (Triticum aestivum) were planted and treated preemergence with test chemicals formulated in a non-phytotoxic solvent mixture which included a surfactant.
# (§2) At the same time, plants selected from these crop and weed species and also blackgrass (Alopecurus myosuroides) and wild oat (Avena fatua) were treated with postemergence applications of test chemicals formulated in the same manner. Plants ranged in height from 2 to 18 cm (1- to 4-leaf stage) for postemergence treatments. Plant species in the flooded paddy test consisted of rice (Oryza sativa), umbrella sedge (Cyperus difformis), duck salad (Heteranthera limosa) and barnyardgrass (Echinochloa crus-galli) grown to the 2-leaf stage for testing. Treated plants and controls were maintained in a greenhouse for 13 to 15 days, after which time all species were compared to controls and visually evaluated. Plant response ratings, summarized in Table B, are based on a scale of 0 to 100 where 0 is no effect and 100 is complete control. A dash (-) response means no test result.
# [2] = system: barnyardgrass (Echinochloa crus-galli); experiment: Test B pre/postemergence
# Source text: as §1, §2
# [3] = system: cocklebur (Xanthium strumarium); experiment: Test B pre/postemergence
# Source text: as §1, §2
# [4] = system: corn (Zea mays); experiment: Test B pre/postemergence
# Source text: as §1, §2
# [5] = system: crabgrass (Digitaria sanguinalis); experiment: Test B pre/postemergence
# Source text: as §1, §2
# [6] = system: giant foxtail (Setaria faberii); experiment: Test B pre/postemergence
# Source text: as §1, §2
# [7] = system: lambsquarters (Chenopodium album); experiment: Test B pre/postemergence
# Source text: as §1, §2
# [8] = system: morningglory (Ipomoea coccinea); experiment: Test B pre/postemergence
# Source text: as §1, §2
# [9] = system: pigweed (Amaranthus retroflexus); experiment: Test B pre/postemergence
# Source text: as §1, §2
# [10] = system: velvetleaf (Abutilon theophrasti); experiment: Test B pre/postemergence
# Source text: as §1, §2
# [11] = system: wheat (Triticum aestivum); experiment: Test B pre/postemergence
# Source text: as §1, §2
# [12] = system: blackgrass (Alopecurus myosuroides); experiment: Test B postemergence; conditions: for Blackgrass plant response rating: 125 g ai/ha, scale 0 to 100 (0 no effect, 100 complete control); for Plant response rating, Blackgrass: 500 g ai/ha, scale 0 to 100
# In short: (§3)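 Test chemicals in a non-phytotoxic solvent mixture with surfactant were applied preemergence to planted seeds and postemergence to plants 2 to 18 cm tall (1- to 4-leaf stage). After 13 to 15 days in a greenhouse, injury was visually rated against untreated controls on a 0 to 100 scale.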
# [13] = system: wild oat (Avena fatua); experiment: Test B postemergence; conditions: for Oat, Wild plant response rating: 125 g ai/ha, scale 0 to 100 (0 no effect, 100 complete control); for Plant response rating, Oat, Wild: 500 g ai/ha, scale 0 to 100
# In short: as §3
# [14] = system: barnyardgrass (Echinochloa crus-galli); experiment: Test B flooded paddy test; conditions: Flood, 1000 g ai/ha; scale 0 (no effect) to 100 (complete control)
# Experimental: as §2
# [15] = system: duck salad (Heteranthera limosa); experiment: Test B flooded paddy test; conditions: Flood, 1000 g ai/ha; scale 0 to 100
# Experimental: as §2
# [16] = system: rice (Oryza sativa); experiment: Test B flooded paddy test; conditions: Flood, 1000 g ai/ha; scale 0 to 100
# Experimental: as §2
# [17] = system: umbrella sedge (Cyperus difformis); experiment: Test B flooded paddy test; conditions: Flood, 1000 g ai/ha; scale 0 to 100
# Experimental: as §2
# [18] = Postemergence, 125 g ai/ha, scale 0 to 100 (0 no effect, 100 complete control)
# [19] = Postemergence, 500 g ai/ha, scale 0 to 100
# [20] = Preemergence, 125 g ai/ha, scale 0 to 100 (0 no effect, 100 complete control)
# [21] = Preemergence, 500 g ai/ha, scale 0 to 100 (0 no effect, 100 complete control)
smiles,measurement,setting,value
CCOC(=O)c1nc(C2CC2)nc(NCCN(C)C)c1Br [Compound 38],Surinam Grass plant response rating,[1]; [18],0
same,"Plant response rating, Surinam Grass",[1]; [19],20
same,"Plant response rating, Surinam Grass",[1]; [20],0
same,Surinam Grass plant response rating,[1]; [21],0
same,Barnyardgrass plant response rating,[2]; [18],0
same,"Plant response rating, Barnyardgrass",[2]; [19],0
same,"Plant response rating, Barnyardgrass",[2]; [20],0
same,Barnyardgrass plant response rating,[2]; [21],0
same,Cocklebur plant response rating,[3]; [18],0
same,"Plant response rating, Cocklebur",[3]; [19],0
same,"Plant response rating, Cocklebur",[3]; [20],0
same,Cocklebur plant response rating,[3]; [21],0
same,Corn plant response rating,[4]; [18],0
same,"Plant response rating, Corn",[4]; [19],0
same,"Plant response rating, Corn",[4]; [20],0
same,Corn plant response rating,[4]; [21],10
same,Crabgrass plant response rating,[5]; [18],0
same,"Plant response rating, Crabgrass",[5]; [19],20
same,"Plant response rating, Crabgrass",[5]; [20],0
same,Crabgrass plant response rating,[5]; [21],0
same,"Foxtail, Giant plant response rating",[6]; [18],0
same,"Plant response rating, Foxtail, Giant",[6]; [19],0
same,"Plant response rating, Foxtail, Giant",[6]; [20],0
same,"Foxtail, Giant plant response rating",[6]; [21],0
same,Lambsquarters plant response rating,[7]; [18],20
same,"Plant response rating, Lambsquarters",[7]; [19],60
same,"Plant response rating, Lambsquarters",[7]; [20],20
same,Lambsquarters plant response rating,[7]; [21],90
same,Morningglory plant response rating,[8]; [18],10
same,"Plant response rating, Morningglory",[8]; [19],40
same,"Plant response rating, Morningglory",[8]; [20],0
same,Morningglory plant response rating,[8]; [21],50
same,Pigweed plant response rating,[9]; [18],30
same,"Plant response rating, Pigweed",[9]; [19],30
same,"Plant response rating, Pigweed",[9]; [20],10
same,Pigweed plant response rating,[9]; [21],70
same,Velvetleaf plant response rating,[10]; [18],0
same,"Plant response rating, Velvetleaf",[10]; [19],50
same,"Plant response rating, Velvetleaf",[10]; [20],0
same,Velvetleaf plant response rating,[10]; [21],0
same,Wheat plant response rating,[11]; [18],0
same,"Plant response rating, Wheat",[11]; [19],0
same,"Plant response rating, Wheat",[11]; [20],0
same,"Plant response rating, Wheat",[11]; [21],0
same,Blackgrass plant response rating,[12],0
same,"Plant response rating, Blackgrass",[12],0
same,"Oat, Wild plant response rating",[13],0
same,"Plant response rating, Oat, Wild",[13],0
same,"Plant response rating, Barnyardgrass",[14],0
same,"Plant response rating, Ducksalad",[15],0
same,"Plant response rating, Rice",[16],0
same,"Plant response rating, Sedge, Umbrella",[17],0
COC(OC)c1nc(C2CC2)nc(N)c1F [Compound 46],Surinam Grass plant response rating,[1]; [18],0
same,"Plant response rating, Surinam Grass",[1]; [19],10
same,"Plant response rating, Surinam Grass",[1]; [20],0
same,Surinam Grass plant response rating,[1]; [21],40
same,Barnyardgrass plant response rating,[2]; [18],0
same,"Plant response rating, Barnyardgrass",[2]; [19],30
same,"Plant response rating, Barnyardgrass",[2]; [20],0
same,Barnyardgrass plant response rating,[2]; [21],0
same,Cocklebur plant response rating,[3]; [18],0
same,"Plant response rating, Cocklebur",[3]; [19],0
same,"Plant response rating, Cocklebur",[3]; [20],0
same,Cocklebur plant response rating,[3]; [21],40
same,Corn plant response rating,[4]; [18],0
same,"Plant response rating, Corn",[4]; [19],0
same,"Plant response rating, Corn",[4]; [20],0
same,Corn plant response rating,[4]; [21],0
same,Crabgrass plant response rating,[5]; [18],10
same,"Plant response rating, Crabgrass",[5]; [19],30
same,"Plant response rating, Crabgrass",[5]; [20],0
same,Crabgrass plant response rating,[5]; [21],40
same,"Foxtail, Giant plant response rating",[6]; [18],0
same,"Plant response rating, Foxtail, Giant",[6]; [19],10
same,"Plant response rating, Foxtail, Giant",[6]; [20],0
same,"Foxtail, Giant plant response rating",[6]; [21],50
same,Lambsquarters plant response rating,[7]; [18],10
same,"Plant response rating, Lambsquarters",[7]; [19],30
same,"Plant response rating, Lambsquarters",[7]; [20],10
same,Lambsquarters plant response rating,[7]; [21],60
same,Morningglory plant response rating,[8]; [18],80
same,"Plant response rating, Morningglory",[8]; [19],90
same,"Plant response rating, Morningglory",[8]; [20],50
same,Morningglory plant response rating,[8]; [21],90
same,Pigweed plant response rating,[9]; [18],70
same,"Plant response rating, Pigweed",[9]; [19],80
same,"Plant response rating, Pigweed",[9]; [20],80
same,Pigweed plant response rating,[9]; [21],90
same,Velvetleaf plant response rating,[10]; [18],0
same,"Plant response rating, Velvetleaf",[10]; [19],0
same,"Plant response rating, Velvetleaf",[10]; [20],0
same,Velvetleaf plant response rating,[10]; [21],20
same,Wheat plant response rating,[11]; [18],0
same,"Plant response rating, Wheat",[11]; [19],0
same,"Plant response rating, Wheat",[11]; [20],0
same,"Plant response rating, Wheat",[11]; [21],20
same,Blackgrass plant response rating,[12],0
same,"Plant response rating, Blackgrass",[12],10
same,"Oat, Wild plant response rating",[13],0
same,"Plant response rating, Oat, Wild",[13],0
same,"Plant response rating, Barnyardgrass",[14],0
same,"Plant response rating, Ducksalad",[15],60
same,"Plant response rating, Rice",[16],0
same,"Plant response rating, Sedge, Umbrella",[17],30
